Experiment [1] has as its target T1, M3 muscarinic receptor subtype (rat submandibular gland) (Rattus norvegicus, UniProt P08483).
T1 construct: Submandibular glands and heart were isolated and placed in ice cold homogenising buffer; from tissue; host or cells: rat submandibular gland membranes
The experiment can be described thus: Radioligand binding assay, [3H]-N-methylscopolamine, M3. As to conditions: for pKi: Receptor Binding Assay M3 Pki. Here is the method: (§1) The membrane preparation was done with the following modifications: a low spin step of 500 g for 10 minutes at 4° C. was used; the buffer was 20 mM HEPES, 10 mM EDTA, at pH 7.4; the high speed spin was done at 40,000 g and the homogenate was passed through a filter gauge before any spinning.
(§2) Membrane preparation: Submandibular glands and heart were isolated and placed in ice cold homogenising buffer (HEPES 20 mM, 10 mM EDTA, pH 7.4) immediately after sacrifice. The tissues were homogenised in 10 volumes of homogenising buffer and the homogenate was filtered through two layers of wet gauze and filtrate was centrifuged at 500 g for 10 min. The supernatant was subsequently centrifuged at 40,000 g for 20 min. The pellet thus obtained was resuspended in same volume of assay buffer (HEPES 20 mM, EDTA 5 mM, pH 7.4) and were stored at −700C until the time of assay.
(§3) Ligand binding assay: The compounds were dissolved and diluted in DMSO. The membrane homogenates (150-250 μg protein) were incubated in 250 μl of assay buffer (HEPES 20 mM, pH 7.4) at 24-25° C. for 3 h. […] The incubation was terminated by vacuum filtration over GF/B fiber filters (Wallac). The filters were then washed with ice cold 50 mM Tris HCl buffer (pH 7.4). The filter mats were dried and bound radioactivity retained on filters was counted. The IC50 and Kd were estimated by using the non-linear curve fitting program using G Pad Prism software.

Experiment [2] has as its target T2, M2 muscarinic receptor subtype (rat heart) (Rattus norvegicus, UniProt P10980).
T2 construct: Submandibular glands and heart were isolated and placed in ice cold homogenising buffer; from tissue; host or cells: rat heart membranes
T2 sequence (P10980 1-466): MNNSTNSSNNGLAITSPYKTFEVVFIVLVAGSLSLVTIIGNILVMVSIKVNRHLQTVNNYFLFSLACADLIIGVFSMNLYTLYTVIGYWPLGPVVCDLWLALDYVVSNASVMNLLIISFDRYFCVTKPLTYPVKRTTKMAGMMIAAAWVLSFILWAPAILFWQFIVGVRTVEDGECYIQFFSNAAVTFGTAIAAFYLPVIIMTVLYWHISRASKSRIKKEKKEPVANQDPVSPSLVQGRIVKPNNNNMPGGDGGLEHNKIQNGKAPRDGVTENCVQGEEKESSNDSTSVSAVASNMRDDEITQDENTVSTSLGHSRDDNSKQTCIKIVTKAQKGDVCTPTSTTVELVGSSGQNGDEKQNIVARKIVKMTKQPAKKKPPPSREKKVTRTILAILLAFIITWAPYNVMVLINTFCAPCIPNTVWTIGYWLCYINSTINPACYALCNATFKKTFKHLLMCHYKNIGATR
Kind of experiment: Radioligand binding assay, [3H]-N-methylscopolamine, M2. As to conditions: for pKi: Receptor Binding Assay M2 pKi. On the procedure:
as §1, §2, §3

In experiment [3] the test system is carbachol evoked changes on bladder pressure, heart rate and salivation. Kind of experiment: In vivo experiments using anesthetized rabbit. As to conditions: for ID50 Bladder Pressure / ID50 Heart Rate Response / ID50 Salivary Response: carbachol 1.5 μg/kg intrarterial, i.v. test compound; for Fold Selectivity Bladder versus Heart Rate / Fold Selectivity Bladder versus Salivary: from ID50 values. On the procedure: In vivo experiments using anesthetized rabbit: The effect of test substances was studied on carbachol evoked changes on bladder pressure, heart rate and salivation. Male rabbits weighing 1.2-3 kg were anaesthetized with urethane (1.5 g/kg), and administered as a slow intravenous infusion through the marginal ear vein. The tracheae were cannulated to maintain airway patency. Blood pressure was recorded from the femoral artery by means of a Statham P10 EZ pressure transducer connected to a Grass model 7D polygraph. The heart rate was monitored by a tachograph triggered by the pulse wave of blood pressure. The other femoral artery was cannulated for the administration of carbachol. Test compound and saline were infused intravenously via the femoral vein.
The bladder was exposed through a midline laparotomy and both the ureters were identified, carefully separated and ligated. The ureters were incised proximally to allow free flow of urine from the kidney to the exterior. Bladder neck was gently held and the urethra was traced and separated from the adjoining tissues. PE canula was introduced into the bladder and ligated. The bladder was drained and subsequently filled with 15 ml of warm saline (37° C.). The other end of the intravesical catheter was connected to the Grass model 7D polygraph through a Statham P10 EZ pressure transducer to monitor the bladder pressure. Care was taken to keep the exposed area moist and warm. A period of 30-60 min was allowed for stabilization of parameters subsequent to surgery. Salivation response was assessed by placing preweighed absorbent cotton gauze in the buccal cavity for 2 minutes after carbachol administration.
At least two stable responses were obtained. These responses were considered as 100%. Subsequently, effect of increasing dose of test compound or vehicle (i.v,12 to 15 min before carbachol challenge) was studied.
The change in bladder pressure, salivation and agonist induced bradycardia were expressed as % change from pretreatment control.

Where [4] appears, read: [3H]-N-methylscopolamine, rat submandibular gland membranes.
[5] abbreviates: [3H]-N-methylscopolamine, rat heart membranes.

Results on 17 compounds are retold here after patent US7544708B2, “Azabicyclo derivatives as muscarinic receptor antagonists” (Ranbaxy Laboratories Limited, priority 2002, dated 2009).

pKi: −log10 of the molar value. Counter-ions that a name gives are not always drawn. Like-named read-outs stand apart in the source and are kept apart here.

T1 sequence (P08483 whole entry): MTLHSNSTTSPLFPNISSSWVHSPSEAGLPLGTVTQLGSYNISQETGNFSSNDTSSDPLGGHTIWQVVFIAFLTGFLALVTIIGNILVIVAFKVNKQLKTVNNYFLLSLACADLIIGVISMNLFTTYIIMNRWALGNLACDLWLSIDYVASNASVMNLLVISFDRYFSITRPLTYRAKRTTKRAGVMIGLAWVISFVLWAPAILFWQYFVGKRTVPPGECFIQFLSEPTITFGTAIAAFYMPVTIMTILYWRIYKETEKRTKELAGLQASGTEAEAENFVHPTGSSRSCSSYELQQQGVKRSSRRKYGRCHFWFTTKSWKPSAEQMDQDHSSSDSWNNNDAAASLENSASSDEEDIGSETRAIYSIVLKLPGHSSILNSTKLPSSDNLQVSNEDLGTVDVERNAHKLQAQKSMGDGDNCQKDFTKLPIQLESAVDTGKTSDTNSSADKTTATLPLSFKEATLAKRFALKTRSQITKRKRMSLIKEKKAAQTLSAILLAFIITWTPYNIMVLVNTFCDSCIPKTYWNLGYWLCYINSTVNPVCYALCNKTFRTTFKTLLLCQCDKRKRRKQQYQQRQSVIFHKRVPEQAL

What is called pKi is the negative decadic logarithm of the Ki, by convention in mol/L. Read a low pKi as a large Ki. Turning to `O=C(NCC1C2CNCC21)C(O)(c1ccccc1)C1CCC(F)C1` (mixture of isomers) [Compound 12, (2R,2S) (1α,5α,6α)-N-[3-azabicyclo[3.1.0]hexyl-6-(aminomethyl)-yl]-2-hydroxy-2-(3-fluorocyclopentyl)-2-phenyl acetamide], the negative-log Ki (pKi) was 9.04 in experiment [1] and 7.60 in experiment [2].
On to `O=C(NCC1C2CNCC21)C(O)(c1ccccc1)C1CCC(F)(F)C1` (mixture of isomers) [Compound 13, (2R,2S) (1α,5α,6α)-N-[3-azabicyclo[3.1.0]hexyl-6-(aminomethyl)-yl]-2-hydroxy-2-(3,3-difluorocyclopentyl)-2-phenyl acetamide], for which the pKi in experiment [1] was 8.70; in experiment [2], 7.30.
For `O=C(NCC1C2CNCC21)C(O)(c1ccccc1)C1CCC(F)(F)C1` (mixture of isomers) [Compound 14, (2R,2S) (1α,5α,6α)-N-[3-azabicyclo[3.1.0]hexyl-6-(aminomethyl)-yl]-2-hydroxy-2-(3,3-difluorocyclopentyl)-2-phenyl acetamide tartarate salt] the same measures were 8.87 and 7.14.
In experiment [1], `O=C(NC[C@H]1[C@@H]2CNC[C@@H]21)C(O)(c1ccccc1)C1CCCC1` (mixture of isomers) [Compound 2, (2R,2S) (1α,5α,6α)-N-[3-azabicyclo[3.1.0]hexyl-6-(aminomethyl)-yl]-2-hydroxy-2-cyclopentyl-2-phenyl acetamide hydrochloride salt] showed a pKi of 9.50. Also, in experiment [2], the pKi was 8.36. In experiment [3], the “ID50 Bladder Pressure” value is 3.93 ± 1.1 μg/kg, i.v; the “ID50 Heart Rate Response” value was 21.13 ± 4.47 μg/kg, i.v; the “ID50 Salivary Response” value was 7.67 ± 1.19 μg/kg, i.v; the “Fold Selectivity Bladder versus Heart Rate” value came to 12.6 ± 5.7. For the same compound, the “Fold Selectivity Bladder versus Salivary” value in experiment [3] was found to be 3.08 ± 0.94.
Turning to `COC(C(=O)NC[C@H]1[C@@H]2CNC[C@@H]21)(c1ccccc1)C1CCCC1` (mixture of isomers) [Compound 7, (2R,2S) (1α,5α,6α)-N-[3-azabicyclo[3.1.0]hexyl-6-(aminomethyl)-yl]-2-methoxy-2-cyclopentyl-2-phenyl acetamide], the Ki in experiment [1] ([3H]-N-methylscopolamine, rat submandibular gland membranes, read-out: Receptor Binding Assay M3 Pki (converted)) was 2.45 nM; in experiment [2] ([3H]-N-methylscopolamine, rat heart membranes, read-out: Receptor Binding Assay M2 pKi (converted)), 25.1 nM.
Regarding `O=C(NC[C@H]1[C@@H]2CNC[C@@H]21)C(O)(c1ccccc1)C1CCCCCC1` (mixture of isomers) [Compound 8, (2R,2S) (1α,5α,6α)-N-[3-azabicyclo[3.1.0]hexyl-6-(aminomethyl)-yl]-2-hydroxy-2-cycloheptyl-2-phenyl acetamide], the pKi in experiment [1] is 8.83; in experiment [2], 7.35.
For `O=C(NC[C@H]1[C@@H]2CNC[C@@H]21)C(O)(c1ccccc1)C1CCCCC1` (mixture of isomers) [Compound 17, (2R,2S) (1α,5α,6α)-N-[3-azabicyclo[3.1.0]hexyl-6-(aminomethyl)-yl]-2-hydroxy-2-cyclohexyl-2-phenyl acetamide] the same measures were 8.87 and 7.30.
Taken in the same sequence, the figures for `CN(C[C@H]1[C@@H]2CNC[C@@H]21)C(=O)C(O)(c1ccccc1)C1CCCC1` (mixture of isomers) [Compound 18, (2R,2S) (1α,5α,6α)-N-[3-azabicyclo[3.1.0]hex-6-ylmethyl)-2-cyclopentyl-2-hydroxy-N-methyl-2-phenyl acetamide] were 9.42 and 8.56.
For `O=C(NC[C@H]1[C@@H]2CNC[C@@H]21)[C@](O)(c1ccccc1)C1CCC(F)(F)C1` (single isomer, unassigned) [Compound 11] the same measures were 8.90 and 7.40.
For `O=C(NC[C@H]1[C@@H]2CNC[C@@H]21)[C@](O)(c1ccccc1)C1CCCC1` [Compound 4, (2R)-(1α,5α,6α)-N-[3-azabicyclo[3.1.0]hexyl-6-(aminomethyl)-yl]-2-hydroxy-2-cyclopentyl 2-phenyl acetamide hydrochloride salt], in experiment [1], the negative-log Ki (pKi) was 9.65. This compound showed a pKi in experiment [2] of 8.43. Further, in experiment [3], the “ID50 Bladder Pressure” value was 2.14 ± 0.42 μg/kg, i.v; the “ID50 Heart Rate Response” value is on record as 5.65 ± 0.86 μg/kg, i.v; the “ID50 Salivary Response” value is 4.66 ± 0.56 μg/kg, i.v; the “Fold Selectivity Bladder versus Heart Rate” value is listed as 3.43 ± 1.02. Besides, the “Fold Selectivity Bladder versus Salivary” value in experiment [3] was 2.37 ± 0.22.
`O=C(NC[C@H]1[C@@H]2CNC[C@@H]21)[C@@](O)(c1ccccc1)C1CCCC1` [Compound 5, (2S)-(1α,5α,6α)-N-[3-azabicyclo[3.1.0]hexyl-6-(aminomethyl)-yl]-2-hydroxy-2-cyclopentyl 2-phenyl acetamide]: the pKi in experiment [1] was 7.50; in experiment [2] it was 6.80.
Take `O=C(NC[C@H]1[C@@H]2CNC[C@@H]21)[C@@](O)(c1ccccc1)C1CCCC1` [Compound 6, (2S)-(1α,5α,6α)-N-[3-azabicyclo[3.1.0]hexyl-6-(aminomethyl)-yl]-2-hydroxy-2-cyclopentyl 2-phenyl acetamide hydrochloride salt]: the pKi in experiment [1] was 7.88; in experiment [2] it was 7.11.
Taken in the same sequence, the figures for `O=C(NCC1C2CNCC21)C(O)(c1ccccc1)C1CCC1` [Compound 9, (2R,2S) (1α,5α,6α)-N-[3-azabicyclo[3.1.0]hexyl-6-(aminomethyl)-yl]-2-hydroxy-2-cyclobutyl-2-phenyl acetamide] were 8.90 and 8.02.
Taken in the same sequence, the figures for `O=C(NCC1C2CNCC21)C(O)(c1ccccc1)C1CCC1` [Compound 10, (2R,2S) (1α,5α,6α)-N-[3-azabicyclo[3.1.0]hexyl-6-(aminomethyl)-yl]-2-hydroxy-2-cyclobutyl-2-phenyl acetamide tartarate salt] were 9.50 and 8.20.
As for `O=C(OC[C@H]1[C@@H]2CNC[C@@H]21)C(O)(c1ccccc1)c1ccccc1` [Compound 15, (2R,2S) (1α,5α,6α)-N-[3-azabicyclo[3.1.0]hexyl-6-(aminomethyl)-yl]-2-hydroxy-2,2-diphenyl acetate], the negative logarithm of the Ki (pKi) in experiment [1] (setting [4]) is 10.18; in experiment [2] (setting [5]) it was 9.66.
For `O=C(NC[C@H]1[C@@H]2CNC[C@@H]21)C(O)(c1ccccc1)c1ccccc1` [Compound 16, (2R,2S) (1α,5α,6α)-N-[3-azabicyclo[3.1.0]hexyl-6-(aminomethyl)-yl]-2-hydroxy-2,2-diphenyl acetamide] the same measures were 9.41 and 7.95.
Take `Cc1ccc(O)c([C@H](CCN(C(C)C)C(C)C)c2ccccc2)c1` [Tolterodine, reference compound]: in experiment [3], the “ID50 Bladder Pressure” value is 25.84 ± 4.24 μg/kg, i.v; the “ID50 Heart Rate Response” value was 32.54 ± 5.77 μg/kg, i.v; the “ID50 Salivary Response” value was 32.5 ± 10.02 μg/kg, i.v.
